Laboratory results: patent US20050197350A1, “Novel quinoline, tetrahydroquinazoline, and pyrimidine derivatives and methods of treatment related to the use thereof” (TAISHO PHARMACEUTICAL CO., LTD., priority 2003, published 2005)

What follows are molecules tested on MCH receptors (assay: MCH receptor activity class (method not given)). Conditions: class by percent of control at 10^-7 M or IC50.
`CN(C)c1nc(N[C@H]2CC[C@@H](NC(=O)NC3CCCCC3)CC2)nc2c1CCCC2` [compound 1816] was tested, and the class was 3 (Class 3 The value of percent of control at 10^−7 M was more than 60% or the value of IC50 was more than 200 nM.). For `CN(C)c1nc(N[C@H]2CC[C@@H](NC(=O)Nc3cccc(C#N)c3)CC2)nc2c1CCCC2` [compound 1817], the class was 3 (Class 3 The value of percent of control at 10^−7 M was more than 60% or the value of IC50 was more than 200 nM.). With `CN(C)c1nc(N[C@H]2CC[C@@H](NC(=O)Nc3ccc(Cl)c(Cl)c3)CC2)nc2c1CCCC2` [compound 1818] the class was 3 (Class 3 The value of percent of control at 10^−7 M was more than 60% or the value of IC50 was more than 200 nM.). With `CN(C)c1nc(N[C@H]2CC[C@@H](NC(=O)Nc3ccc(Cl)cc3Cl)CC2)nc2c1CCCC2` [compound 1819] the class was 3 (Class 3 The value of percent of control at 10^−7 M was more than 60% or the value of IC50 was more than 200 nM.). `CN(C)c1nc(N[C@H]2CC[C@@H](NC(=O)Nc3c(F)cccc3F)CC2)nc2c1CCCC2` [compound 1820] was tested, and the class was 3 (Class 3 The value of percent of control at 10^−7 M was more than 60% or the value of IC50 was more than 200 nM.). With `CN(C)c1nc(N[C@H]2CC[C@@H](NC(=O)Nc3cc(Cl)ccc3Cl)CC2)nc2c1CCCC2` [compound 1821] the class was 3 (Class 3 The value of percent of control at 10^−7 M was more than 60% or the value of IC50 was more than 200 nM.). For `CCOC(=O)CNC(=O)N[C@H]1CC[C@@H](Nc2nc3c(c(N(C)C)n2)CCCC3)CC1` [compound 1822], the class was 3 (Class 3 The value of percent of control at 10^−7 M was more than 60% or the value of IC50 was more than 200 nM.). `CCOC(=O)c1ccc(NC(=O)N[C@H]2CC[C@@H](Nc3nc4c(c(N(C)C)n3)CCCC4)CC2)cc1` [compound 1823] was tested, and the class was 3 (Class 3 The value of percent of control at 10^−7 M was more than 60% or the value of IC50 was more than 200 nM.). For `CCc1ccc(NC(=O)N[C@H]2CC[C@@H](Nc3nc4c(c(N(C)C)n3)CCCC4)CC2)cc1` [compound 1824], the class was 3 (Class 3 The value of percent of control at 10^−7 M was more than 60% or the value of IC50 was more than 200 nM.). In the case of `CCNC(=O)N[C@H]1CC[C@@H](Nc2nc3c(c(N(C)C)n2)CCCC3)CC1` [compound 1825], the class is reported as 3 (Class 3 The value of percent of control at 10^−7 M was more than 60% or the value of IC50 was more than 200 nM.). In the case of `CN(C)c1nc(N[C@H]2CC[C@@H](NC(=O)Nc3ccc(F)c([N+](=O)[O-])c3)CC2)nc2c1CCCC2` [compound 1826], the class is reported as 3 (Class 3 The value of percent of control at 10^−7 M was more than 60% or the value of IC50 was more than 200 nM.). `CN(C)c1nc(N[C@H]2CC[C@@H](NC(=O)Nc3cccc(F)c3)CC2)nc2c1CCCC2` [compound 1827] was tested, and the class was 3 (Class 3 The value of percent of control at 10^−7 M was more than 60% or the value of IC50 was more than 200 nM.). For `CN(C)c1nc(N[C@H]2CC[C@@H](NC(=O)Nc3ccccc3F)CC2)nc2c1CCCC2` [compound 1828], the class was 3 (Class 3 The value of percent of control at 10^−7 M was more than 60% or the value of IC50 was more than 200 nM.). `CC(C)c1ccc(NC(=O)N[C@H]2CC[C@@H](Nc3nc4c(c(N(C)C)n3)CCCC4)CC2)cc1` [compound 1829] was tested, and the class was 3 (Class 3 The value of percent of control at 10^−7 M was more than 60% or the value of IC50 was more than 200 nM.). In the case of `CC(C)NC(=O)N[C@H]1CC[C@@H](Nc2nc3c(c(N(C)C)n2)CCCC3)CC1` [compound 1830], the class is reported as 3 (Class 3 The value of percent of control at 10^−7 M was more than 60% or the value of IC50 was more than 200 nM.). `COc1ccc(NC(=O)N[C@H]2CC[C@@H](Nc3nc4c(c(N(C)C)n3)CCCC4)CC2)cc1` [compound 1831] was tested, and the class was 3 (Class 3 The value of percent of control at 10^−7 M was more than 60% or the value of IC50 was more than 200 nM.). In the case of `Cc1ccc(NC(=O)N[C@H]2CC[C@@H](Nc3nc4c(c(N(C)C)n3)CCCC4)CC2)c([N+](=O)[O-])c1` [compound 1832], the class is reported as 3 (Class 3 The value of percent of control at 10^−7 M was more than 60% or the value of IC50 was more than 200 nM.). For `COc1ccccc1NC(=O)N[C@H]1CC[C@@H](Nc2nc3c(c(N(C)C)n2)CCCC3)CC1` [compound 1833], the class was 3 (Class 3 The value of percent of control at 10^−7 M was more than 60% or the value of IC50 was more than 200 nM.). For `COc1cccc(NC(=O)N[C@H]2CC[C@@H](Nc3nc4c(c(N(C)C)n3)CCCC4)CC2)c1` [compound 1834], the class was 3 (Class 3 The value of percent of control at 10^−7 M was more than 60% or the value of IC50 was more than 200 nM.). In the case of `COc1ccc(CNC(=O)N[C@H]2CC[C@@H](Nc3nc4c(c(N(C)C)n3)CCCC4)CC2)cc1` [compound 1835], the class is reported as 3 (Class 3 The value of percent of control at 10^−7 M was more than 60% or the value of IC50 was more than 200 nM.). For `Cc1cccc(CNC(=O)N[C@H]2CC[C@@H](Nc3nc4c(c(N(C)C)n3)CCCC4)CC2)c1` [compound 1836], the class was 3 (Class 3 The value of percent of control at 10^−7 M was more than 60% or the value of IC50 was more than 200 nM.). With `CCCNC(=O)N[C@H]1CC[C@@H](Nc2nc3c(c(N(C)C)n2)CCCC3)CC1` [compound 1837] the class was 3 (Class 3 The value of percent of control at 10^−7 M was more than 60% or the value of IC50 was more than 200 nM.). With `CN(C)c1nc(N[C@H]2CC[C@@H](NC(=O)Nc3cccc(C(F)(F)F)c3)CC2)nc2c1CCCC2` [compound 1838] the class was 3 (Class 3 The value of percent of control at 10^−7 M was more than 60% or the value of IC50 was more than 200 nM.). With `CCO[Si](CCCNC(=O)N[C@H]1CC[C@@H](Nc2nc3c(c(N(C)C)n2)CCCC3)CC1)(OCC)OCC` [compound 1839] the class was 3 (Class 3 The value of percent of control at 10^−7 M was more than 60% or the value of IC50 was more than 200 nM.). For `Cc1cccc(NC(=O)N[C@H]2CC[C@@H](Nc3nc4c(c(N(C)C)n3)CCCC4)CC2)c1` [compound 1840], the class was 3 (Class 3 The value of percent of control at 10^−7 M was more than 60% or the value of IC50 was more than 200 nM.). For `Cc1ccc(NC(=O)N[C@H]2CC[C@@H](Nc3nc4c(c(N(C)C)n3)CCCC4)CC2)cc1Cl` [compound 1841], the class was 3 (Class 3 The value of percent of control at 10^−7 M was more than 60% or the value of IC50 was more than 200 nM.). In the case of `CC(NC(=O)NC1CCC(Nc2nc3c(c(N(C)C)n2)CCCC3)CC1)c1cccc2ccccc12` (stereo not drawn) [compound 1842], the class is reported as 3 (Class 3 The value of percent of control at 10^−7 M was more than 60% or the value of IC50 was more than 200 nM.). With `CN(C)c1nc(N[C@H]2CC[C@@H](NC(=O)Nc3ccccc3OC(F)F)CC2)nc2c1CCCC2` [compound 1843] the class was 3 (Class 3 The value of percent of control at 10^−7 M was more than 60% or the value of IC50 was more than 200 nM.). `COC(=O)c1ccccc1NC(=O)N[C@H]1CC[C@@H](Nc2nc3c(c(N(C)C)n2)CCCC3)CC1` [compound 1844] was tested, and the class was 3 (Class 3 The value of percent of control at 10^−7 M was more than 60% or the value of IC50 was more than 200 nM.). In the case of `CSc1ccccc1NC(=O)N[C@H]1CC[C@@H](Nc2nc3c(c(N(C)C)n2)CCCC3)CC1` [compound 1845], the class is reported as 3 (Class 3 The value of percent of control at 10^−7 M was more than 60% or the value of IC50 was more than 200 nM.). In the case of `CN(C)c1nc(N[C@H]2CC[C@@H](NC(=O)Nc3cc(Cl)c(Cl)cc3Cl)CC2)nc2c1CCCC2` [compound 1846], the class is reported as 2 (Class 2: The value of percent of control at 10^−7 M was from 40% to 60% or the value of IC′50 was from 50 nM to 200 nM.). In the case of `Cc1ccc(NC(=O)N[C@H]2CC[C@@H](Nc3nc4c(c(N(C)C)n3)CCCC4)CC2)c(C)c1` [compound 1847], the class is reported as 3 (Class 3 The value of percent of control at 10^−7 M was more than 60% or the value of IC50 was more than 200 nM.). With `CN(C)c1nc(N[C@H]2CC[C@@H](NC(=O)Nc3cc(F)ccc3F)CC2)nc2c1CCCC2` [compound 1848] the class was 3 (Class 3 The value of percent of control at 10^−7 M was more than 60% or the value of IC50 was more than 200 nM.). With `COc1ccc(OC)c(NC(=O)N[C@H]2CC[C@@H](Nc3nc4c(c(N(C)C)n3)CCCC4)CC2)c1` [compound 1849, N-(2,5-dimethoxyphenyl)-N′-(cis-4-{[4-(dimethylamino)-5,6,7,8-tetrahydroquinazolin-2-yl]amino}cyclohexyl)urea] the class was 2 (Class 2: The value of percent of control at 10^−7 M was from 40% to 60% or the value of IC′50 was from 50 nM to 200 nM.). With `Cc1ccc(C)c(NC(=O)N[C@H]2CC[C@@H](Nc3nc4c(c(N(C)C)n3)CCCC4)CC2)c1` [compound 1850] the class was 3 (Class 3 The value of percent of control at 10^−7 M was more than 60% or the value of IC50 was more than 200 nM.). In the case of `CN(C)c1nc(N[C@H]2CC[C@@H](NC(=O)Nc3ccccc3Cc3ccccc3)CC2)nc2c1CCCC2` [compound 1851], the class is reported as 3 (Class 3 The value of percent of control at 10^−7 M was more than 60% or the value of IC50 was more than 200 nM.). With `CN(C)c1nc(N[C@H]2CC[C@@H](NC(=O)Nc3c(F)cc(F)cc3Br)CC2)nc2c1CCCC2` [compound 1852] the class was 3 (Class 3 The value of percent of control at 10^−7 M was more than 60% or the value of IC50 was more than 200 nM.). `CN(C)c1nc(N[C@H]2CC[C@@H](NC(=O)Nc3ccc(C(F)(F)F)cc3Cl)CC2)nc2c1CCCC2` [compound 1853] was tested, and the class was 3 (Class 3 The value of percent of control at 10^−7 M was more than 60% or the value of IC50 was more than 200 nM.). In the case of `CN(C)c1nc(N[C@H]2CC[C@@H](NC(=O)Nc3ccc([N+](=O)[O-])cc3Cl)CC2)nc2c1CCCC2` [compound 1854], the class is reported as 3 (Class 3 The value of percent of control at 10^−7 M was more than 60% or the value of IC50 was more than 200 nM.). `CN(C)c1nc(N[C@H]2CC[C@@H](NC(=O)Nc3cc(C(F)(F)F)ccc3Cl)CC2)nc2c1CCCC2` [compound 1855] was tested, and the class was 3 (Class 3 The value of percent of control at 10^−7 M was more than 60% or the value of IC50 was more than 200 nM.). With `Cc1ccc(Cl)c(NC(=O)N[C@H]2CC[C@@H](Nc3nc4c(c(N(C)C)n3)CCCC4)CC2)c1` [compound 1856] the class was 3 (Class 3 The value of percent of control at 10^−7 M was more than 60% or the value of IC50 was more than 200 nM.). With `CCOC(=O)c1ccccc1NC(=O)N[C@H]1CC[C@@H](Nc2nc3c(c(N(C)C)n2)CCCC3)CC1` [compound 1857] the class was 3 (Class 3 The value of percent of control at 10^−7 M was more than 60% or the value of IC50 was more than 200 nM.).
